# Measured values reported in patent US6043274A, “Method of treating diabetic cardiomyopathy” (priority 1999, dated 2000).
# Legend:
# [1] = tested on: aldose reductase (human recombinant, expressed in SF 9 cells); test: Aldose reductase assay, NADPH dependent reduction of glyceraldehyde; assay type: biochemical; details: glyceraldehyde as substrate, 37° C., plot only, no value given
# Protocol: Aldose reductase assays were as described in Nishimura C., Yamaoka T., Mizutani M., Yamashita K., Akera T., Tanimoto T., Purification And Characterization Of The Recombinant Human Aldose Reductase Expressed In Baculovirus System, Biochem. Biophys. Acta, Jun. 24, 1991; 1078(2):171-8.
# Briefly, Dimesna (0-20 μM) was incubated at 37° C. with aldose reductase (0.0016 units, human recombinant, expressed in SF 9 cells) and NADPH (0.15 mM) in sodium phosphate buffer (100 mM, pH 6.2). To initiate assays, glucose (10-150 mM) was added to reactions and the decrease in absorbance at 340 nm (oxidation of NADPH) was monitored. Assays were run in duplicate or triplicate. Slopes were calculated using Varian-Cary software package 2.0 and averaged. In all cases errors were 4% or less. Lineweaver Burk analysis (Enzyme Kinetics, version 1.61) was used to calculate inhibition constants.
# Aldose reductase assays were as described above. Dimesna (0-30 mM) was evaluated for its effect on the NADPH dependent reduction of glyceraldehyde (0.050-6 mM) to aldose at 37° C. Assays were run in duplicate or triplicate. Slopes were calculated using Varian-Cary software package 2.0 and averaged. In all cases errors were 4% or less. Lineweaver Burk analysis (Enzyme Kinetics, version 1.61) was used to calculate inhibition constants.
# mice = details: intravenously; cited from earlier work
# dogs = details: intravenously; cited from earlier work
# diabetic retinopathy = details: humans, mainly in the 1980s; cited from earlier work
SMILES,Inhibition of Aldose Reductase (Lineweaver Burk plot) [1],dose administered with no adverse effects (mice) [mg/kg],dose administered with no adverse effects (dogs) [mg/kg],efficacy in slowing the progress of diabetic retinopathy (diabetic retinopathy),tolerability in patients (diabetic retinopathy)
"O=S(=O)([O-])CCSSCCS(=O)(=O)[O-].[Na+].[Na+] [Dimesna, disodium 2,2'-dithiobis ethane sulfonate]",Inhibition,> 3750,> 3750,,
O=C1NC(=O)[C@@]2(CCOc3ccc(F)cc32)N1 [sorbinil],,,,some efficacy,not well tolerated
